Test results reported in patent US12630594B2, “Allergy antigen and epitope for same” (HOYU CO., LTD., priority 2017, dated 2026).

Legend:
[1] = tested on: IgE antibodies from patients; assay: Epitope mapping (2): overlapping 10-amino-acid peptide fragments shifted by one amino acid; format: binding, human; details: positions numbered within the 15-amino-acid epitope; serum of 5 patients
Text: On the basis of the sequences (SEQ ID NOs: 150-154 for alpha-actinin-3, SEQ ID NO: 155 for EEF1A2 binding protein-like, SEQ ID NOs: 156 and 157 for alpha-1,4-glucan phosphorylase, SEQ ID NOs: 158 and 159 for elongation factor 2, SEQ ID NOs: 160-162 for heat shock cognate 70 kDa protein, SEQ ID NOs: 163-167 for serotransferrin, SEQ ID NOs: 168-171 for myosin binding protein H-like, SEQ ID NOs: 172-174 for desmin (fragment), SEQ ID NOs: 175-178 for capping protein (actin filament) muscle Z-line beta, SEQ ID NOs: 179-185 for myosin heavy chain, fast skeletal muscle-like, SEQ ID NO: 186 for glycogen phosphorylase, muscle form-like, SEQ ID NOs: 187-196 for myosin-binding protein C, fast-type-like, SEQ ID NO: 197 for ATP synthase subunit beta, mitochondrial, SEQ ID NO: 198 for L-lactate dehydrogenase A chain-like, SEQ ID NO: 199 for aldolase, SEQ ID NOs: 200-202 for β-enolase, and SEQ ID NOs: 203 and 204 for glyceraldehyde-3-phosphate dehydrogenase) of the peptides bound to an IgE antibody in serum in a patient-specific manner as described above in (A), a library of overlapping peptide fragments (length: 10 amino acids) was prepared using the sequences of the peptides and sequences in which sequences were added so as to flank each peptide in the amino acid sequences of allergen components (SEQ ID NO: 2 for alpha-actinin-3, SEQ ID NO: 5 for EEF1A2 binding protein-like, SEQ ID NO: 10 for alpha-1,4-glucan phosphorylase, SEQ ID NO: 19 for elongation factor 2, SEQ ID NO: 26 for heat shock cognate 70 kDa protein, SEQ ID NO: 33 for serotransferrin, SEQ ID NO: 43 for myosin binding protein H-like, SEQ ID NO: 56 for desmin (fragment), SEQ ID NO: 61 for capping protein (actin filament) muscle Z-line beta, SEQ ID NO: 70 for myosin heavy chain, fast skeletal muscle-like, SEQ ID NO: 110 for glycogen phosphorylase, muscle form-like, SEQ ID NO: 121 for myosin-binding protein C, fast-type-like, SEQ ID NO: 138 for ATP synthase subunit beta, mitochondrial, SEQ ID NO: 144 for L-lactate dehydrogenase A chain-like, SEQ ID NO: 445 for aldolase, SEQ ID NO: 446 for β-enolase, and SEQ ID NO: 447 for glyceraldehyde-3-phosphate dehydrogenase) comprising the sequences of the peptide. Epitope mapping was carried out using the library.
The peptides to be synthesized were shifted by one amino acid.
The library was prepared by the same procedure as described above in (A), and the presence or absence of binding of an IgE antibody present in the serum of a patient and a non-fish-allergic subject to each peptide fragment was measured by the same technique as described above. Amino acids at positions where the binding activity against IgE antibodies from patients were lost or decreased in the peptides shifted by one amino acid while binding activity against IgE antibodies from non-fish-allergic subjects arose were confirmed as amino acids adversely affecting the specificity of binding to IgE antibodies.
Chemiluminescence intensity in images obtained by measurement was converted into a numeric value in the same manner as in (A) using ImageQuant TL (GE Healthcare). […]

[2] = tested on: IgE antibodies from patients; assay: Epitope mapping (3): alanine scanning; set-up: species or system human; details: positions numbered within the region important for binding; no influence on IgE binding when substituted by alanine
Procedure: From the amino acid sequences identified above in (A), a library of peptide fragments in which N-terminal amino acids were substituted one by one by alanine according to a technique called alanine scanning (Non Patent Literature 5) was prepared by the same technique as described above. The presence or absence of binding of an IgE antibody present in the serum of a patient and a non-fish-allergic subject to each peptide fragment was measured by the same technique as described above. Amino acids at positions where the binding activity against IgE antibodies from patients were lost or decreased by the substitution by alanine while binding activity against IgE antibodies from non-fish-allergic subjects arose were confirmed as amino acids important for exertion of original antigenicity, or amino acids influencing exertion of original antigenicity.
Chemiluminescence intensity in images obtained by measurement was converted into a numeric value in the same manner as in (A) using ImageQuant TL (GE Healthcare). When values obtained using the sequences (SEQ ID NOs: 150-204) that were of the peptides confirmed to bind to an IgE antibody in a patient specific manner from the images obtained from results about the serum of 5 patients and served as the basis of overlapping were defined as 100%, it was determined that: a peptide having a value of less than 20% had no binding activity against IgE antibodies; a peptide having a value of 20% or more and less than 50% had binding activity, albeit poor, against IgE antibodies; a peptide having a value of 50% or more and less than 70% had binding activity, albeit somewhat poor, against IgE antibodies; a peptide having a value of 70% or more and less than 90% had equivalent binding activity against IgE antibodies; and a peptide having a value of 90% or more had almost equivalent or good binding activity against IgE antibodies and was thus a peptide had remaining binding activity against IgE antibodies.
By this analysis, common sequences important for exertion of original antigenicity were found in regions important for binding to IgE antibodies from patients, in the sequences serving as the basis of overlapping.

[3] = tested on: IgE antibody present in the serum of a fish-allergic patient; assay: Epitope mapping (1): peptide array of overlapping 15-amino-acid peptides; format: binding, human; details: average of 5 patients / average of 4 non-fish-allergic subjects at least 1.5, Mann-Whitney U test
Procedure: Epitope mapping was carried out using a library of overlapping peptides (length: 15 amino acids) corresponding to the amino acid sequences identified as allergy components of fish and the amino acid sequences of known fish allergy antigens aldolase, β-enolase, and glyceraldehyde-3-phosphate dehydrogenase (Non Patent Literature 2-4). Specifically, the library of overlapping peptides was prepared on the basis of the amino acid sequences of SEQ ID NO: 2 for alpha-actinin-3, SEQ ID NO: 5 for EEF1A2 binding protein-like, SEQ ID NO: 10 for alpha-1,4-glucan phosphorylase, SEQ ID NO: 19 for elongation factor 2, SEQ ID NO: 26 for heat shock cognate 70 kDa protein, SEQ ID NO: 33 for serotransferrin, SEQ ID NO: 43 for myosin binding protein H-like, SEQ ID NO: 56 for desmin (fragment), SEQ ID NO: 61 for capping protein (actin filament) muscle Z-line beta, SEQ ID NO: 70 for myosin heavy chain, fast skeletal muscle-like, SEQ ID NO: 110 for glycogen phosphorylase, muscle form-like, SEQ ID NO: 121 for myosin-binding protein C, fast-type-like, SEQ ID NO: 138 for ATP synthase subunit beta, mitochondrial, SEQ ID NO: 144 for L-lactate dehydrogenase A chain-like, SEQ ID NO: 445 for aldolase, SEQ ID NO: 446 for β-enolase, and SEQ ID NO: 447 for glyceraldehyde-3-phosphate dehydrogenase.
The peptides to be synthesized were shifted by 10 amino acids.
For preparation of peptide arrays, the Intavis CelluSpots™ technique was used. Specifically, the peptide arrays were prepared by the following procedure: (1) synthesizing peptides of interest on amino-modified cellulose disks using an automated chemical synthesis apparatus (Intavis MultiPep RS), (2) dissolving the amino-modified cellulose disks to obtain a cellulose-bound peptide solution, and (3) spotting the cellulose-bound peptides onto coated glass slides. The details of each procedure are as described below.
The presence or absence of binding, to each peptide fragment, of an IgE antibody present in the serum of a fish-allergic patient was measured through antigen-antibody reaction using the peptide arrays. The measurement was carried out according to the following procedure. • (1) The peptides were shaken at room temperature for 1 hour in PBST. • (2) The peptide arrays were shaken at overnight at room temperature in 5% serum/PBST. • (3) The peptide arrays were washed with a PBST solution (a PBS buffer containing 0.1% Tween 20 nonionic surfactant) for 5 minutes (×3). • (4) Anti-human IgE antibody-HRP(1:5,000, PBST) was added thereto, and the peptide arrays were shaken at room temperature for 1 hour. • (5) The peptide arrays were washed with a PBST solution for 5 minutes (×3). • (6) Pierce ECL Plus Western Blotting Substrate (produced by Thermo Fisher Scientific) was added thereto, and the peptide arrays were shaken at room temperature for 5 minutes. • (7) The chemiluminescence of the peptides treated as described above in (1) to • (6) was measured using Amersham Imager 600.
Chemiluminescence intensity in images obtained by the measurement described above in (7) was converted into a numeric value using ImageQuant TL (GE Healthcare). The average value of numeric values determined from images obtained from results about the serum of 5 patients was divided by the average value of numeric values determined from images obtained from results about the serum of 4 non-fish-allergic subjects. It was determined that a peptide having a calculated value (average value of the patient group/average value of the non-fish-allergic subject group) of at least 1.5 and a significant difference of […] in the Mann-Whitney U test was a peptide bound to an IgE antibody in a patient-specific manner.

[4] = tested on: IgE antibody in the serum of a fish-allergic patient; assay: Immunoblotting of two-dimensional electrophoresis patterns of fish meat proteins with patient serum; format: binding, human
Procedure: Proteins contained in fish were analyzed by the aforementioned technique to identify antigens of an allergy to fish. To be specific, proteins were extracted from fish meat and subjected to two-dimensional electrophoresis under the conditions described below.
The electrophoresis in the first dimension was isoelectric focusing, which was performed using isoelectric focusing gels with a gel-strip length of 5 to 10 cm and a gel pH range of 3 to 10. The pH gradient of the gels in the direction of electrophoresis was as follows: with the total gel-strip length being taken as 1, the gel-strip length up to pH 5 was “a=0.15 to 0.3”, the gel-strip length from pH 5 to 7 was “b=0.4 to 0.7”, and the gel-strip length above pH 7 was “c=0.15 to 0.3”. More specifically, the isoelectric focusing was performed using the IPG gels, Immobiline Drystrip (pH3-10NL), produced by GE Healthcare Bio-Sciences Corporation (hereinafter abbreviated as “GE”). The electrophoresis system used was IPGphor produced by GE. The maximum current of the electrophoresis system was limited to 75 μA per gel strip. The voltage program adopted to perform the first-dimensional isoelectric focusing was as follows: (1) a constant voltage step was performed at a constant voltage of 300 V until the volt-hours reached 750 Vhr (the current variation width during electrophoresis for 30 minutes before the end of this step was 5 μA); (2) the voltage was increased gradually to 1000 V for 300 Vhr; (3) the voltage was further increased gradually to 5000 V for 4500 Vhr; and then (4) the voltage was held at a constant voltage of 5000 V until the total Vhr reached 12000.
The electrophoresis in the second dimension was SDS-PAGE, which was performed using polyacrylamide gels whose gel concentration at the distal end in the direction of electrophoresis was set to 3 to 6% and whose gel concentration at the proximal end was set to a higher value than that at the distal end. More specifically, the SDS-PAGE was performed using NuPAGE 4-12% Bris-Tris Gels (IPG well, Mini, 1 mm) produced by Life Technologies. The electrophoresis system used was XCell SureLock Mini-Cell produced by Life Technologies. The electrophoresis was run at a constant voltage of 200 V for about 45 minutes using an electrophoresis buffer composed of 50 mM MOPS, 50 mM Tris base, 0.1% (w/v) SDS and 1 mM EDTA.
Identification of antigens by immunoblotting was carried out by taking all the steps up to the step of “Second-dimensional SDS-PAGE” as described above in Example 1, followed by the steps of “Transfer to membrane”, “Immunoblotting” and “Analysis” as described below.
To be specific, proteins in the second-dimensional electrophoresis gels were transferred to a membrane (PVDF membrane) according to the following procedure. • (1) The PVDF membrane was immersed in 100% methanol followed by milliQ water, and then moved into the transfer buffer to hydrophilize the PVDF membrane. • (2) After sponge, filter paper, the second-dimensional electrophoresis gels treated by second-dimensional SDS-PAGE, the hydrophilized PVDF membrane, filter paper, and sponge were put in place in this order, the transfer system was energized at a constant voltage of 30 V for one hour. Immunoblotting
Immunoblotting of the membrane was carried out using, as a primary antibody, a serum sample from patient 1 with a fish allergy or a serum sample from a non-fish-allergic subject. This fish-allergic patient 1 was a patient diagnosed with immediate-type allergy to fish. […]

| Substance | Positions of amino acids of region important for binding in epitope [1] | Non-binding-influencing amino acid in region important for binding [2] | IgE antibody binding in a patient-specific manner [3] | spots detected by immunoblotting, different from spots with serum of non-fish-allergic subject ([4]; proteins contained in salmon meat, serum from fish-allergic patient 3 (FIG. 1B right)) | specific binding to IgE antibodies from fish-allergic patients ([4]; spots in two-dimensional electrophoresis gel of proteins in fish, patients diagnosed with immediate-type allergy) |
| --- | --- | --- | --- | --- | --- |
| 6 (LDNRLYYMVAEHDSS; epitope) [compound 6] | 1-11 | 8 | bind in a patient-specific manner |  |  |
| 8 (DRFKVFADYEAYIKS; epitope) [compound 8] | 2-9 |  | bind in a patient-specific manner |  |  |
| 37 (GGYIQAVLDRNLCEN; epitope) [compound 37] |  | 3 | bind in a patient-specific manner |  |  |
| 49 (VLAGEPVGSRSKVTV; epitope) [compound 49] | 5-13 | 6 | bind in a patient-specific manner |  |  |
| 50 (SYGRALQASALKAWG; epitope) [compound 50] |  |  | bind in a patient-specific manner |  |  |
| 54 (YMVYMFKYDSTHGRF; epitope) [compound 54] | 1-15 |  | bind in a patient-specific manner |  |  |
| 55 (PASYDAIKKVVKAAA; epitope) [compound 55] |  | 5 | bind in a patient-specific manner |  |  |
| ATP synthase subunit beta, mitochondrial [Spot 13] |  |  |  | newly detected | specific binding to IgE antibodies |
